Article PMC10584170, “Machine learning-based phenotypic imaging to characterise the targetable biology of Plasmodium falciparum male gametocytes for the development of transmission-blocking antimalarials” (PLOS Pathogens, 2023)

What was measured:
[1] = tested on: P. falciparum male gametocytes; experiment: P. falciparum Dual Gamete Formation Assay (PfDGFA), male readout (exflagellation); type: cell-based, Plasmodium falciparum NF54; details: for Average inhibition male (%): average of replicates; for % inhibition male (individual replicates) R1: replicate R1; for % inhibition male (individual replicates) R3: replicate R3; for % inhibition male (individual replicates) R4: replicate R4; for Activity: hit = >50% inhibition in male or female readout in at least 3 replicates, 0 = no class assigned
Method in brief: (§1)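 Read-outs are automated image counts of exflagellation centres (brightfield, 10 frames over 1 s) and Pfs25-positive female gametes (Cy3 fluorescence).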

[2] = tested on: P. falciparum female gametocytes; experiment: P. falciparum Dual Gamete Formation Assay (PfDGFA), female readout (Pfs25-positive female gametes); type: cell-based, Plasmodium falciparum NF54; details: for Average inhibition female (%): average of replicates; for % inhibition female (individual replicates) R1: replicate R1; for % inhibition female (individual replicates) R3: replicate R3; for % inhibition female (individual replicates) R4: replicate R4
Method in brief: as §1

[3] = PfDGFA at 2µM, 24h preincubation with gametocytes
[4] = number of replicates with >50% inhibition in the male readout, 2µM
[5] = number of replicates with >50% inhibition in the female readout, 2µM
[6] = PfDGFA at 2µM, 24h preincubation with gametocytes prior to induction of gametogenesis
[7] = PfDGFA at 2µM, 24h preincubation
[8] = 2µM, 24h preincubation with gametocytes prior to induction of gametogenesis
[9] = 2µM, 24h preincubation, number of replicates with >50% inhibition in the male readout
[10] = 2µM, 24h preincubation, number of replicates with >50% inhibition in the female readout
[11] = 2µM, 24h preincubation, hits selected on >50% inhibition in the male readout across replicates
[12] = 2µM, 24h preincubation, hits selected on >50% inhibition in the female readout across replicates

CC(C)n1c(C(C)(C)C)cc2c3c(N)nc(N)nc3ccc21 [TCMDC-137311]
Average inhibition male (%) [1, 3]: 66.3% | % inhibition male (individual replicates) R1 [1, 3]: 58.8% | % inhibition male (individual replicates) R3 [1, 3]: 70.2% | % inhibition male (individual replicates) R4 [1, 3]: 54.6% | HitlevelM [1, 4]: 4 | Average inhibition female (%) [2, 3]: -0.8% | % inhibition female (individual replicates) R1 [2, 3]: -8.1% | % inhibition female (individual replicates) R3 [2, 3]: 21.9% | % inhibition female (individual replicates) R4 [2, 3]: -9.1% | HitlevelF [2, 5]: 0

COc1ccc2c(c1CCNCCCCNCCc1c(OC)ccc3c1CCCC3)CCCC2.CS(=O)(=O)O [TCMDC-137324]
Average inhibition male (%) [1, 3]: 81.7% | % inhibition male (individual replicates) R1 [1, 3]: 91.2% | % inhibition male (individual replicates) R3 [1, 3]: 86.5% | % inhibition male (individual replicates) R4 [1, 3]: 98.0% | HitlevelM [1, 4]: 4 | Average inhibition female (%) [2, 3]: 79.4% | % inhibition female (individual replicates) R1 [2, 3]: 79.9% | % inhibition female (individual replicates) R3 [2, 3]: 84.0% | % inhibition female (individual replicates) R4 [2, 3]: 85.5% | HitlevelF [2, 5]: 4

CC(C(=O)OCCOCn1cnc2c(=O)[nH]c(N)nc21)N(C)C(=O)OC(C)(C)C (stereo not drawn) [TCMDC-137343]
% inhibition male (individual replicates) R1 [1, 6]: 2.6% | % inhibition male (individual replicates) R4 [1, 6]: -43.6% | Average inhibition male (%) [1, 7]: -14.6% | % inhibition female (individual replicates) R1 [2, 6]: 1.2% | % inhibition female (individual replicates) R3 [2, 6]: -8.6% | % inhibition female (individual replicates) R4 [2, 6]: 4.1% | Average inhibition female (%) [2, 7]: -0.55%

Cl.c1ccc2c(Nc3ccc(Cc4ccc(Nc5c6ccccc6nc6ccccc56)cc4)cc3)c3ccccc3nc2c1 [TCMDC-137354]
Average inhibition male (%) [1, 8]: 52.9% | % inhibition male (individual replicates) R1 [1, 8]: 49.4% | % inhibition male (individual replicates) R3 [1, 8]: 55.5% | % inhibition male (individual replicates) R4 [1, 8]: 71.3% | HitlevelM [1, 9]: 2 | Average inhibition female (%) [2, 8]: 87.8% | % inhibition female (individual replicates) R1 [2, 8]: 83.3% | % inhibition female (individual replicates) R3 [2, 8]: 91.0% | % inhibition female (individual replicates) R4 [2, 8]: 96.5% | HitlevelF [2, 10]: 4

Cl.c1ccc2c(Nc3ccc(OCCOCCOc4ccc(Nc5c6ccccc6nc6ccccc56)cc4)cc3)c3ccccc3nc2c1 [TCMDC-137355]
Average inhibition male (%) [1, 8]: 37.2% | % inhibition male (individual replicates) R1 [1, 8]: 36.9% | % inhibition male (individual replicates) R3 [1, 8]: -1.4% | % inhibition male (individual replicates) R4 [1, 8]: 40.2% | HitlevelM [1, 9]: 1 | Average inhibition female (%) [2, 8]: 29.1% | % inhibition female (individual replicates) R1 [2, 8]: 27.7% | % inhibition female (individual replicates) R3 [2, 8]: 5.6% | % inhibition female (individual replicates) R4 [2, 8]: 8.9% | HitlevelF [2, 10]: 1

COc1cc(Cc2cnc(N)nc2N)cc(OCCCC(=O)O)c1OC [TCMDC-137359]
Average inhibition male (%) [1, 8]: 4.4% | % inhibition male (individual replicates) R1 [1, 8]: 4.7% | % inhibition male (individual replicates) R3 [1, 8]: 7.0% | % inhibition male (individual replicates) R4 [1, 8]: 5.5% | HitlevelM [1, 11]: 0 | Activity [1, 7]: 0 | Average inhibition female (%) [2, 8]: 3.8% | % inhibition female (individual replicates) R1 [2, 8]: 8.3% | % inhibition female (individual replicates) R3 [2, 8]: -22.8% | % inhibition female (individual replicates) R4 [2, 8]: 31.0% | HitlevelF [2, 12]: 0

CCc1nc(N)nc(N)c1-c1cccc(Cl)c1 [TCMDC-137371]
Average inhibition male (%) [1, 8]: -6.5% | % inhibition male (individual replicates) R1 [1, 8]: 19.6% | % inhibition male (individual replicates) R3 [1, 8]: -24.6% | % inhibition male (individual replicates) R4 [1, 8]: -25.1% | HitlevelM [1, 11]: 0 | Activity [1, 7]: 0 | Average inhibition female (%) [2, 8]: 4.1% | % inhibition female (individual replicates) R1 [2, 8]: 14.2% | % inhibition female (individual replicates) R3 [2, 8]: -6.6% | % inhibition female (individual replicates) R4 [2, 8]: 5.2% | HitlevelF [2, 12]: 0

CCCc1cc(OC)c(CC2c3cc(O)c(Cl)cc3C(c3ccccc3)CN2C)cc1OC.Cl (stereo not drawn) [TCMDC-137432]
Average inhibition male (%) [1, 8]: 3.7% | % inhibition male (individual replicates) R1 [1, 8]: 2.4% | % inhibition male (individual replicates) R3 [1, 8]: -26.9% | % inhibition male (individual replicates) R4 [1, 8]: 27.9% | HitlevelM [1, 11]: 0 | Activity [1, 7]: 0 | Average inhibition female (%) [2, 8]: 7.6% | % inhibition female (individual replicates) R1 [2, 8]: -2.1% | % inhibition female (individual replicates) R3 [2, 8]: 40.4% | % inhibition female (individual replicates) R4 [2, 8]: -8.9% | HitlevelF [2, 12]: 0

Cl.N=C(NCCCc1ccccc1)c1cccc(C(=N)NCCCc2ccccc2)n1 [TCMDC-137453]
Average inhibition male (%) [1, 8]: 15.3% | % inhibition male (individual replicates) R1 [1, 8]: 11.4% | % inhibition male (individual replicates) R3 [1, 8]: -5.0% | % inhibition male (individual replicates) R4 [1, 8]: 33.6% | HitlevelM [1, 9]: 0 | Average inhibition female (%) [2, 8]: 26.7% | % inhibition female (individual replicates) R1 [2, 8]: 21.1% | % inhibition female (individual replicates) R3 [2, 8]: 29.3% | % inhibition female (individual replicates) R4 [2, 8]: 27.4% | HitlevelF [2, 10]: 0

CC(CNC(=N)c1cccc(C(=N)NCC(C)Oc2cccc(C3CCCCC3)c2)n1)Oc1cccc(C2CCCCC2)c1.Cl (stereo not drawn) [TCMDC-137455]
Average inhibition male (%) [1, 3]: 81.3% | % inhibition male (individual replicates) R1 [1, 3]: 90.7% | % inhibition male (individual replicates) R3 [1, 3]: 87.0% | % inhibition male (individual replicates) R4 [1, 3]: 101.3% | HitlevelM [1, 4]: 3 | Average inhibition female (%) [2, 3]: 40.6% | % inhibition female (individual replicates) R1 [2, 3]: 53.6% | % inhibition female (individual replicates) R3 [2, 3]: 30.8% | % inhibition female (individual replicates) R4 [2, 3]: 44.6% | HitlevelF [2, 5]: 1

N=C(NCC1CC1c1ccccc1)c1cccc(C(=N)NCC2CC2c2ccccc2)n1 (stereo not drawn) [TCMDC-137456]
Average inhibition male (%) [1, 3]: 66.3% | % inhibition male (individual replicates) R1 [1, 3]: 75.4% | % inhibition male (individual replicates) R3 [1, 3]: 23.0% | % inhibition male (individual replicates) R4 [1, 3]: 81.6% | HitlevelM [1, 4]: 3 | Average inhibition female (%) [2, 3]: 33.5% | % inhibition female (individual replicates) R1 [2, 3]: 27.8% | % inhibition female (individual replicates) R3 [2, 3]: 24.0% | % inhibition female (individual replicates) R4 [2, 3]: 33.0% | HitlevelF [2, 5]: 0

CN1CCN(CCCCNc2c3ccccc3nc3ccccc23)CC1 [TCMDC-137479]
Average inhibition male (%) [1, 8]: 37.9% | % inhibition male (individual replicates) R1 [1, 8]: 56.6% | % inhibition male (individual replicates) R3 [1, 8]: -27.6% | % inhibition male (individual replicates) R4 [1, 8]: 45.6% | HitlevelM [1, 9]: 2 | Average inhibition female (%) [2, 8]: 21.2% | % inhibition female (individual replicates) R1 [2, 8]: 27.6% | % inhibition female (individual replicates) R3 [2, 8]: -3.0% | % inhibition female (individual replicates) R4 [2, 8]: 19.8% | HitlevelF [2, 10]: 0

CCC(=C(CC)c1ccc(O)c(CNC2CCCCC2)c1)c1ccc(O)c(CNC2CCCCC2)c1.Cl [TCMDC-137481]
Average inhibition male (%) [1, 8]: 1.2% | % inhibition male (individual replicates) R1 [1, 8]: -0.3% | % inhibition male (individual replicates) R4 [1, 8]: 0.8% | HitlevelM [1, 11]: 0 | Activity [1, 7]: 0 | Average inhibition female (%) [2, 8]: 5.6% | % inhibition female (individual replicates) R1 [2, 8]: 2.3% | % inhibition female (individual replicates) R3 [2, 8]: 13.0% | % inhibition female (individual replicates) R4 [2, 8]: 6.2% | HitlevelF [2, 12]: 0

Nc1nc(Cc2ccc(Cl)cc2)nc(Cc2ccc(Cl)cc2)n1 [TCMDC-137497]
% inhibition male (individual replicates) R1 [1, 6]: -13.6% | % inhibition male (individual replicates) R3 [1, 6]: -49.6% | % inhibition male (individual replicates) R4 [1, 6]: -34.5% | Average inhibition male (%) [1, 7]: -26.4% | % inhibition female (individual replicates) R1 [2, 6]: -4.6% | % inhibition female (individual replicates) R3 [2, 6]: -30.4% | % inhibition female (individual replicates) R4 [2, 6]: 8.0% | Average inhibition female (%) [2, 7]: -6.5%
